Reference: ChEMBL document CHEMBL1121391, “Antiamebic amidines and sulfonamides of 5- and 6-amino-2,3-bis(4-alkyl-1-piperazinyl)quinoxalines” (1980)
Calls of active or inactive are those of the source. The rule behind the calls is not given here.

Key:
Entamoeba histolytica [1] = test: (§1) Lowest active dose which cured rats with Entamoeba histolytica cecal infection was measured; assay type: functional, organism-based
Entamoeba histolytica [2] = test: as §1; assay type: functional
Cricetinae gen. sp. = test: Lowest active dose which cured the hamsters with Entamoeba histolytica hepatic infection was measured; IA means inactive; assay type: functional, organism-based; conditions: Cricetulus griseus
Entamoeba histolytica [3] = test: Lowest active dose which cured hamsters with Entamoeba histolytica hepatic infection was measured; assay type: functional

SMILES	Dose (Entamoeba histolytica [1])	Dose (Entamoeba histolytica [2]) [mg/kg/day]	also measured
C/C(=N\c1cccc2nc(N3CCN(C)CC3)c(N3CCN(C)CC3)nc12)N(C)C	inactive		
CN(C)/C=N/c1cc(Cl)cc2nc(N3CCN(C)CC3)c(N3CCN(C)CC3)nc12 (stereo in doubt; 7)	inactive		
CC/C(=N\c1cccc2nc(N3CCN(C)CC3)c(N3CCN(C)CC3)nc12)N(C)C	inactive		
CCCN1CCN(c2nc3cccc(N)c3nc2N2CCN(CCC)CC2)CC1	inactive		
CN1CCN(c2nc3ccc(N)cc3nc2N2CCN(C)CC2)CC1		50	Dose (Cricetinae gen. sp.): inactive
O=[N+]([O-])c1cncn1CCN1CCOCC1 [NIMORAZOLE]		20	Dose (Entamoeba histolytica [3]): 100 mg/kg/day
CC/C(=N\c1cc(Cl)cc2nc(N3CCN(C)CC3)c(N3CCN(C)CC3)nc12)N(C)C	inactive		
Cc1ncc([N+](=O)[O-])n1CCO [METRONIDAZOLE]		10	Dose (Entamoeba histolytica [3]): 10 mg/kg/day
CN(C)CCCc1ccc(/C=N/c2ccc3nc(N4CCN(C)CC4)c(N4CCN(C)CC4)nc3c2)cc1		50	
CCN(/C=N/c1ccc2nc(N3CCN(C)CC3)c(N3CCN(C)CC3)nc2c1)CC	inactive		
CN1CCN(c2nc3ccc(NS(=O)(=O)c4ccc(Cl)cc4)cc3nc2N2CCN(C)CC2)CC1	inactive		
CN1CCN(c2nc3cc(Cl)cc(NS(=O)(=O)c4ccc(Cl)cc4)c3nc2N2CCN(C)CC2)CC1	inactive		
CN(C)CCCN1CCN(/C=N/c2ccc3nc(N4CCN(C)CC4)c(N4CCN(C)CC4)nc3c2)CC1	inactive		
CN(C)/C=N/c1cccc2nc(N3CCN(C)CC3)c(N3CCN(C)CC3)nc12		10	Dose (Entamoeba histolytica [3]): 50 mg/kg/day
CN1CCN(c2nc3ccc(NS(=O)(=O)c4cccc(C(F)(F)F)c4)cc3nc2N2CCN(C)CC2)CC1	inactive		
CCCN1CCN(c2nc3ccc(/N=C/N(C)C)cc3nc2N2CCN(CCC)CC2)CC1		50	Dose (Entamoeba histolytica [3]): 100 mg/kg/day
CN1CCN(c2nc3ccc(/N=C/N4CCCCC4)cc3nc2N2CCN(C)CC2)CC1	inactive		
Cc1ccc(S(=O)(=O)Nc2cccc3nc(N4CCN(C)CC4)c(N4CCN(C)CC4)nc23)cc1	inactive		
Cc1ccc(S(=O)(=O)Nc2ccc3nc(N4CCN(C)CC4)c(N4CCN(C)CC4)nc3c2)cc1		50	Dose (Entamoeba histolytica [3]): 100 mg/kg/day
CN1CCN(/C=N/c2ccc3nc(N4CCN(C)CC4)c(N4CCN(C)CC4)nc3c2)CC1	inactive		
CCCN1CCN(c2nc3ccc(N)cc3nc2N2CCN(CCC)CC2)CC1	inactive		
C/C(=N\c1ccc2nc(N3CCN(C)CC3)c(N3CCN(C)CC3)nc2c1)N(C)C	inactive		
CN1CCN(c2nc3cc(Cl)cc(N)c3nc2N2CCN(C)CC2)CC1	inactive		
CC/C(=N\c1ccc2nc(N3CCN(C)CC3)c(N3CCN(C)CC3)nc2c1)N(CC)CC	inactive		
CCCN1CCN(c2nc3ccc(/N=C(\C)N(C)C)cc3nc2N2CCN(CCC)CC2)CC1	inactive		
CCN(CC)/C(C)=N/c1cc(Cl)cc2nc(N3CCN(C)CC3)c(N3CCN(C)CC3)nc12	inactive		
CCCN1CCN(c2nc3ccc(NS(=O)(=O)c4ccc(C)cc4)cc3nc2N2CCN(CCC)CC2)CC1	inactive		
CN(C)/C=N/c1cc(Cl)cc2nc(N3CCN(C)CC3)c(N3CCN(C)CC3)nc12 (stereo in doubt; 21)	inactive		
CN1CCN(c2nc3cccc(N)c3nc2N2CCN(C)CC2)CC1		50	Dose (Cricetinae gen. sp.): inactive
CN(C)/C=N/c1ccc2nc(N3CCN(C)CC3)c(N3CCN(C)CC3)nc2c1		20	Dose (Entamoeba histolytica [3]): 50 mg/kg/day
